{"source": "patent US8431706B2", "about": "“1,2,3,4-tetrahydroqinoline derivative useful for the treatment of diabetes” (Eli Lilly and Company, priority 2011, dated 2013)", "key": {"[1]": {"tested_on": "primary rodent pancreatic islets of Langerhans", "assay": "GDIS assay in primary rodent pancreatic islets", "type": "cell-based", "settings": "3.0 uM with rat islets and 11.2 mM glucose; compared to 11.2 mM glucose; 90 min; P<0.05", "text": "Because activation of GPR40 is known to result in insulin secretion, which is dependent on high glucose concentrations, two separate assay systems (an insulinoma cell line and primary rodent islets) are developed to further characterize compounds that are known to increase intracellular calcium in the GPR40 primary assay discussed above.\nGDIS assays using primary rodent pancreatic islets of Langerhans are also used to characterize the exemplified compound. Pancreatic islets are isolated from male SD (Sprague Dawley) rats by collagenase digestion and Histopaque density gradient separation. The islets are cultured overnight in RPMI-1640 medium with GlutaMAXn (stabilized, dipeptide form of L-glutamine (Invitrogen catalog #61870-010)) to facilitate recovery from the isolation process. Insulin secretion is determined by a 90 minute incubation in EBSS (Earle's Balances Salt Solution) buffer in a 48-well plate. Briefly, islets are first preincubated in EBSS with 2.8 mM glucose for 30 min, and are then transferred to a 48-well plate (four islets/well) containing 150 μl 2.8 mM glucose, and incubated with 150 μl of EBSS with 2.8 or 11.2 mM glucose in the presence or absence of test compound for 90 minutes. The buffer is removed from the wells at the end of the incubation, and assayed for insulin levels using the Rat Insulin ELISA kit (Mercodia). […]"}, "Gal4 PPARδ": {"molecular_target": "T1, Gal4 PPARδ (Homo sapiens, UniProt Q03181)", "T1 construct": "expressed in transfected cells; host or cells: CV1 (African green monkey kidney)", "T1 sequence (Q03181 211-439 limits assumed)": "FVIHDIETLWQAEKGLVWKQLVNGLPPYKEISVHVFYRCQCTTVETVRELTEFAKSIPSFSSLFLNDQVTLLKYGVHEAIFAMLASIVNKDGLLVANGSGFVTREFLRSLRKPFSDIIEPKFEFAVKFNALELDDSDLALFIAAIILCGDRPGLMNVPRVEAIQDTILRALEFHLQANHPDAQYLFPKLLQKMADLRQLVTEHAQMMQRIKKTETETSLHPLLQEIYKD", "assay": "Gal4 PPARδ reporter functional assay in CV1 cells", "type": "cell-based", "settings": "examined up to 10 μM; luciferase reporter; 24 hours", "text": "Gal4 PPARα, Gal4 PPARδ, and PPARγ reporter functional assays are also used to monitor the selectivity of the exemplified compound. CV1 cells, which are derived from the renal tissue of an African green monkey, are transfected with various receptor and reporter plasmids using Fugene. For the Gal4 PPARα and PPARδ assays, a reporter plasmid containing five tandem copies of the yeast transcription protein Gal4 response element, cloned upstream of a firefly luciferase gene driven by the major late promoter of adenovirus, is transfected together with a Simian Virus 40 (SV40) driven plasmid constitutively expressing a hybrid protein containing the Gal4 DNA binding domain (DBD), and either the PPARα or PPARδ ligand binding. For the PPARγ assay, plasmids encoding PPARγ and RXRα, both driven by a cytomegalovirus (CMV) promoter are transfected together with a plasmid containing luciferase reporter cDNA driven by the TK promoter and a receptor response element (2×PPRE). Cells are transfected in T225 cm^2 cell culture flasks in DMEM media with 5% charcoal-stripped FBS. […] After 24 hours incubation with the compound, cells are lysed and luciferase activity is determined as a measure of receptor activation by luminescence. […] The maximum percent stimulation is determined versus maximum stimulation obtained with 10 μM of an appropriate PPAR agonist reference compound. […]"}, "human GPR40": {"molecular_target": "human GPR40 (Homo sapiens, UniProt O14842)", "sequence (O14842 whole entry)": "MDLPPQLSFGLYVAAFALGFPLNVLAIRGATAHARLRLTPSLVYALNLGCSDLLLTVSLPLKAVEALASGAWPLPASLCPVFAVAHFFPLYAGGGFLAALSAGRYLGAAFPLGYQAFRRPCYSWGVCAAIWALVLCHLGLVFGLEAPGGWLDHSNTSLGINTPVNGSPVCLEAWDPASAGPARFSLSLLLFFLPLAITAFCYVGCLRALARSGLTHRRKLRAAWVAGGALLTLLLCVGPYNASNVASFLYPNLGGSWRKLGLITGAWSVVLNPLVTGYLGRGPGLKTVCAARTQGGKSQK", "settings": "maximal response compared to the natural ligand, linoleic acid"}}, "data": [{"smiles": "CC#C[C@@H](CC(=O)O)c1ccc(OCc2ccc(CN3CCCc4cccc(OC)c43)s2)cc1", "note": "[Example 1, (3S)-3-[4-[[5-[(8-Methoxy-3,4-dihydro-2H-quinolin-1-yl)methyl]-2-thienyl]methoxy]phenyl]hex-4-ynoic acid]", "values": [{"measurement": "increase in insulin", "setting": "[1]", "value": 2.1, "unit": "fold"}, {"measurement": "functional activation of PPARδ", "setting": "Gal4 PPARδ", "value": "No functional activation"}, {"measurement": "Percent efficacy", "setting": "human GPR40", "value": "84+/−24%"}]}]}
